Data reported in US20260001928A1 (CORTERIA PHARMACEUTICALS, priority 2022, published 2026).
*1 amine or outer side, *2 acyl side, *3 side chain or, on linkers, in order; H or OH if unused. Where a SMILES comes first, the peptide text is derived from it. Side-chain parts run from the residue outwards. [ ]: non-standard residue; d: D form. The star is where a group is joined. C20 diacid = O=C(O)CCCCCCCCCCCCCCCCCCC(=O)*; C18 diacid = O=C(O)CCCCCCCCCCCCCCCCC(=O)*; γGlu = O=C(O)[C@H](CCC(=O)[*:2])N[*:1]; Thp = NC1(C(=O)O)CCOCC1; Pentanoyl = CCCCC(=O)*; AEEA = NCCOCCOCC(=O)O; Aib = CC(C)(N)C(=O)O

Key:
[1] = molecular target: T1, CFR1R receptor (Homo sapiens, UniProt P34998); assay: Activity at anti-target CFR1R receptor, cAMP assay in CRF1R-overexpression CHO-K1 cells; type: cell-based; conditions: 100% = Sauvagine at 100 nM; for EC50: cAMP
T1 construct: host or cells: CHO-K1 (clone 2)
T1 sequence (P34998 24-415): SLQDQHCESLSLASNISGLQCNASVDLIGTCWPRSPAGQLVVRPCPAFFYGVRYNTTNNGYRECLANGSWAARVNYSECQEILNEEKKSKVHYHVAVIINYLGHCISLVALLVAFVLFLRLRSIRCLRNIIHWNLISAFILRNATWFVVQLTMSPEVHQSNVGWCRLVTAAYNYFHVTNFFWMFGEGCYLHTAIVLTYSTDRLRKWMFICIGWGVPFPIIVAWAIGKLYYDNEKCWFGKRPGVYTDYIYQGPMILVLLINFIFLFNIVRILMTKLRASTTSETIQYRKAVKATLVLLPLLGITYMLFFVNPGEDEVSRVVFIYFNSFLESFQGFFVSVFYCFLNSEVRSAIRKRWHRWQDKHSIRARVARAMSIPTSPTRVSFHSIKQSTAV
Summary of the method: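 Signal is normalised to 100 nM Sauvagine, taken as 100% activation, in clone 2 cells plated at a final 4000 cells/well from frozen stocks.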

[2] = Pharmacokinetics in male Sprague Dawley rats after subcutaneous administration; type: in vivo; conditions: plasma, rat, IV, 0.05 mg/kg
[3] = Chemical stability in buffer (pH 7.4 / pH 4.5), % purity loss; type: physicochemical; conditions: 40° C. vs 5° C., 14 or 28 days; for Buffer stability pH 7.4 % purity loss: 100 mM phosphate buffer pH 7.4; for Buffer stability pH 4.5 % purity loss: 100 mM acetate buffer pH 4.5
Summary of the method: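 Compounds dissolved at 10 mg/mL target in 100 mM phosphate (pH 7.4) or 100 mM acetate (pH 4.5) buffer for 1 h at room temperature, then centrifuged. Diluted supernatant stored at 5 °C or 40 °C for 14 or 28 days; % purity loss by LC-UV.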

[4] = In vitro subcutaneous tissue supernatant (SCts) stability and metabolite identification, rat; type: in vitro ADME; set-up: remaining at 2 h: dose or concentration left out as unconfirmed; conditions: male, Sprague Dawley; rat subcutaneous tissue supernatant (SCts), 37° C, 2 h
[5] = molecular target: T2, human CRF2a receptor (Homo sapiens, UniProt Q13324); assay: Activity at human CRF2a receptor, cAMP functional assay in TeloHEAC cells; type: cell-based; conditions: TeloHEAC cells stably expressing human CRF2a receptor, relative to urocortin 2 (100 nM = 100%)
T2 construct: expressed in transfected cells; host or cells: TeloHEAC cells
T2 sequence (Q13324 1-411): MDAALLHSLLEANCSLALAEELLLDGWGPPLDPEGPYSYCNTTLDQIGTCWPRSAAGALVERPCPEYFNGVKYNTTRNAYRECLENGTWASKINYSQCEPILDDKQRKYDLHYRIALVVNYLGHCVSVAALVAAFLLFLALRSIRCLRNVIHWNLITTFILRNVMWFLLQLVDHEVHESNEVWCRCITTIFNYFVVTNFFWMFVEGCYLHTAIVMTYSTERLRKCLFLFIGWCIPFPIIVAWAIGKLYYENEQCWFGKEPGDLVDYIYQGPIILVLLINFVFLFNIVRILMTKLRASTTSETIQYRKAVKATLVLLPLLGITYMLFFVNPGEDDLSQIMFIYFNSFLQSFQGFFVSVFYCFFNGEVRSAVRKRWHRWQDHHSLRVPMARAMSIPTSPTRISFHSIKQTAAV
Summary of the method: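 TeloHEAC cells stably expressing human CRF2a (10000 cells/well, suspended in HBSS/20 mM HEPES with 2 mM IBMX) were exposed to compounds for 30 min at 37 °C. cAMP was read as the 665/620 nm fluorescence ratio after 1 h at room temperature. EC50 was derived relative to 100 nM urocortin 2, set as 100%.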

[6] = test system: Sprague Dawley rats; assay: Effect on systolic blood pressure, telemetry in Sprague Dawley rats; type: in vivo, rat; conditions: 0.1 mg/kg SC; for Systolic blood pressure (Mean) % change from baseline, 8 h / Systolic blood pressure (Mean) % change from baseline, 12 h / Systolic blood pressure (Mean) % change from baseline, 24 h: n=2; for Duration of action: last time point with an effect on BP still observed
Summary of the method: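 Sprague Dawley rats with abdominal-aorta telemetry catheters, recovered ≥10 days, received 0.1 mg/kg SC of compound or vehicle. Systolic pressure recorded 1 h pre-dose as baseline, then continuously up to 48 hours, expressed as % change from baseline; duration of action is last time point with a BP effect (n=2).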

Emax (% I) [1] [% I] | EC50 [1] [pM] | AUC(0-t) [2] [ng·h/mL] | half-life [2] [h] | Buffer stability pH 7.4 % purity loss [3] | remaining at 2 h [4] [%] | EC50 [5] [pM] | Buffer stability pH 4.5 % purity loss [3] | Compound | Systolic blood pressure (Mean) % change from baseline, 8 h [6] [%] | Systolic blood pressure (Mean) % change from baseline, 12 h [6] [%] | Systolic blood pressure (Mean) % change from baseline, 24 h [6] [%] | Duration of action [6] [h]
9 | > 250000 | 5040 | 7.5 | 0.0/Not Tested % | 67 | 290 |  | CC[C@H](C)[C@H](NC(C)=O)C(=O)N[C@H](C(=O)N[C@@H](CC(C)C)C(=O)N[C@@H](CO)C(=O)N[C@@H](CC(C)C)C(=O)N[C@@H](CC(=O)O)C(=O)N[C@@H](C(=O)N1CCC[C@H]1C(=O)N[C@H](C(=O)N[C@@H](CCCCN)C(=O)N[C@@H](CC(C)C)C(=O)N[C@@H](CCCCNC(=O)CC[C@H](NC(=O)CCCCCCCCCCCCCCCCC(=O)O)C(=O)O)C(=O)N[C@@H](CCCCN)C(=O)N[C@H](C(=O)N[C@@H](CC(C)C)C(=O)N[C@@H](CC(C)C)C(=O)N[C@@H](CCC(=O)O)C(=O)N[C@@H](CCC(N)=O)C(=O)N[C@@H](CCC(=O)O)C(=O)N[C@@H](CCCCN)C(=O)N[C@@H](CCC(N)=O)C(=O)N[C@@H](CCCCN)C(=O)N[C@@H](C)C(=O)N[C@@H](CCC(N)=O)C(=O)N[C@@H](CCCNC(=N)N)C(=O)N[C@@H](CCC(=O)O)C(=O)N[C@@H](CCC(N)=O)C(=O)N[C@@H](C)C(=O)N[C@@H](CCC(=O)O)C(=O)N[C@H](C(=O)N[C@@H](CC(N)=O)C(=O)NC(C)(C)C(=O)N[C@@H](CCC(N)=O)C(=O)N[C@H](C(=O)N[C@@H](CC(C)C)C(=O)N[C@@H](C)C(=O)N[C@@H](CCC(N)=O)C(=O)N[C@H](C(N)=O)C(C)C)[C@@H](C)CC)[C@@H](C)O)[C@@H](C)CC)[C@@H](C)CC)C(C)C)C(C)C [compound 189] (Ac-IVLSLD[dV]PIKLK([γGlu-C18 diacid])KILLEQEKQKAQREQAETN[Aib]QILAQV-NH2) | −27 | −25 | −13 | >24
20 | > 250000 | 2340 | 4.9 | 0.0/Not Tested % | 56 | 170 |  | CCCCC(=O)N[C@H](C(=O)N[C@@H](CC(C)C)C(=O)N[C@@H](CO)C(=O)N[C@@H](CC(C)C)C(=O)N[C@@H](CC(=O)O)C(=O)N[C@@H](C(=O)N1CCC[C@H]1C(=O)N[C@H](C(=O)N[C@@H](CCCCN)C(=O)N[C@@H](CC(C)C)C(=O)N[C@@H](CCCCNC(=O)CC[C@H](NC(=O)CCCCCCCCCCCCCCCCC(=O)O)C(=O)O)C(=O)N[C@@H](CCCCN)C(=O)N[C@H](C(=O)N[C@@H](CC(C)C)C(=O)N[C@@H](CC(C)C)C(=O)N[C@@H](CCC(=O)O)C(=O)N[C@@H](CCC(N)=O)C(=O)N[C@@H](CCC(=O)O)C(=O)N[C@@H](CCCCN)C(=O)N[C@@H](CCC(N)=O)C(=O)N[C@@H](CCCCN)C(=O)N[C@@H](CCCCN)C(=O)N[C@@H](CCC(N)=O)C(=O)N[C@@H](CCCNC(=N)N)C(=O)N[C@@H](CCC(=O)O)C(=O)N[C@@H](CCC(N)=O)C(=O)N[C@@H](C)C(=O)N[C@@H](CCC(=O)O)C(=O)N[C@H](C(=O)N[C@@H](CC(N)=O)C(=O)NC(C)(C)C(=O)N[C@@H](CCC(N)=O)C(=O)N[C@H](C(=O)N[C@@H](CC(C)C)C(=O)N[C@@H](C)C(=O)N[C@@H](CCC(N)=O)C(=O)N[C@H](C(N)=O)C(C)C)[C@@H](C)CC)[C@@H](C)O)[C@@H](C)CC)[C@@H](C)CC)C(C)C)C(C)C [compound 193] (Pentanoyl-VLSLD[dV]PIKLK([γGlu-C18 diacid])KILLEQEKQKKQREQAETN[Aib]QILAQV-NH2) | −20 | −12 | −8 | >24
3 | > 250000 | 4860 | 6.2 | 0.0/0.0 ^ % | 65 | 430 | 0.0/0.0 ^ % | CC[C@H](C)[C@H](NC(C)=O)C(=O)N[C@H](C(=O)N[C@@H](CC(C)C)C(=O)N[C@@H](CO)C(=O)N[C@@H](CC(C)C)C(=O)N[C@@H](CC(=O)O)C(=O)N[C@@H](C(=O)N1CCC[C@H]1C(=O)N[C@H](C(=O)N[C@@H](CCCCN)C(=O)N[C@@H](CC(C)C)C(=O)N[C@@H](CCCCNC(=O)COCCOCCNC(=O)CC[C@H](NC(=O)CCCCCCCCCCCCCCCCC(=O)O)C(=O)O)C(=O)N[C@@H](CCCCN)C(=O)N[C@H](C(=O)N[C@@H](CC(C)C)C(=O)N[C@@H](CC(C)C)C(=O)N[C@@H](CCC(=O)O)C(=O)N[C@@H](CCC(N)=O)C(=O)N[C@@H](CCC(=O)O)C(=O)N[C@@H](CCCCN)C(=O)N[C@@H](CCC(N)=O)C(=O)N[C@@H](CCCCN)C(=O)N[C@@H](CCCCN)C(=O)N[C@@H](CCC(N)=O)C(=O)N[C@@H](CCCNC(=N)N)C(=O)N[C@@H](CCC(=O)O)C(=O)N[C@@H](CCC(N)=O)C(=O)N[C@@H](C)C(=O)N[C@@H](CCC(=O)O)C(=O)N[C@H](C(=O)N[C@@H](CC(N)=O)C(=O)NC(C)(C)C(=O)N[C@@H](CCC(N)=O)C(=O)N[C@H](C(=O)N[C@@H](CC(C)C)C(=O)N[C@@H](C)C(=O)N[C@@H](CCC(N)=O)C(=O)N[C@H](C(N)=O)C(C)C)[C@@H](C)CC)[C@@H](C)O)[C@@H](C)CC)[C@@H](C)CC)C(C)C)C(C)C [compound 203] (Ac-IVLSLD[dV]PIKLK([AEEA-γGlu-C18 diacid])KILLEQEKQKKQREQAETN[Aib]QILAQV-NH2) | −18 | −11 | 2 | 23
 |  | 7780 | 8.4 | 0.0/0.0 ^ % | 72 |  | 0.0/0.0 ^ % | CC[C@H](C)[C@H](NC(C)=O)C(=O)N[C@H](C(=O)N[C@@H](CC(C)C)C(=O)N[C@@H](CO)C(=O)N[C@@H](CC(C)C)C(=O)N[C@@H](CC(=O)O)C(=O)N[C@@H](C(=O)N1CCC[C@H]1C(=O)N[C@H](C(=O)N[C@@H](CCCCN)C(=O)N[C@@H](CC(C)C)C(=O)N[C@@H](CCCCNC(=O)CC[C@H](NC(=O)CCCCCCCCCCCCCCCCCCC(=O)O)C(=O)O)C(=O)N[C@@H](CCCCN)C(=O)N[C@H](C(=O)N[C@@H](CC(C)C)C(=O)N[C@@H](CC(C)C)C(=O)N[C@@H](CCC(=O)O)C(=O)N[C@@H](CCC(N)=O)C(=O)N[C@@H](CCC(=O)O)C(=O)N[C@@H](CCCCN)C(=O)N[C@@H](CCC(N)=O)C(=O)N[C@@H](CCCCN)C(=O)N[C@@H](CCCCN)C(=O)N[C@@H](CCC(N)=O)C(=O)N[C@@H](CCCNC(=N)N)C(=O)N[C@@H](CCC(=O)O)C(=O)N[C@@H](CCC(N)=O)C(=O)N[C@@H](C)C(=O)N[C@@H](CCC(=O)O)C(=O)N[C@H](C(=O)N[C@@H](CC(N)=O)C(=O)NC1(C(=O)N[C@@H](CCC(N)=O)C(=O)N[C@H](C(=O)N[C@@H](CC(C)C)C(=O)N[C@@H](C)C(=O)N[C@@H](CCC(N)=O)C(=O)N[C@H](C(N)=O)C(C)C)[C@@H](C)CC)CCOCC1)[C@@H](C)O)[C@@H](C)CC)[C@@H](C)CC)C(C)C)C(C)C [compound 210] (Ac-IVLSLD[dV]PIKLK([γGlu-C20 diacid])KILLEQEKQKKQREQAETN[Thp]QILAQV-NH2) | −13 | −13 | −6 | >24
